# Experimental data published in patent publication US20230372328A1, “ORAL DELAYED BURST FORMULATION OF LOW-DOSE NALTREXONE AND METHODS FOR TREATING FIBROMYALGIA AND LONG COVID” (Scilex Holding Company, priority 2020, published 2023).
# Where a name gives a salt, the structure may show the parent alone. Read-outs that look alike come from different tables or passages of the source.
# Experiments:
# [1] = cited from earlier work
# [2] = Naltrexone HCl excipient compatibility (stressed stability) study, assay and impurities; assay type: physicochemical
# Description: An excipient compatibility study was designed and conducted to screen excipients for the low dose naltrexone HCl delayed release capsules for formulation development purposes. Based on the formulation approach of a multi-particulate system filled in capsule dosage form, the drug layered spheres were coated with a functional pH dependent polymer film.
# The physical mixtures were prepared by weighing individual material into glass crimp vials and mixing using a vortex. The open samples were left open and closed samples were tightly closed using a crimper.
# [3] = cited from earlier work; remark: listed apart in the source
# [4] = 40° C./ 75% RH - Closed - 2 weeks
# [5] = 40° C./ 75% RH - Open - 2 weeks
compound,measurement,setting,value
"C=CCN1CC[C@]23c4c5ccc(O)c4OC2C(=O)CC[C@@]3(O)[C@H]1C5 (stereo partly drawn) [Naloxone hydrochloride, 17-allyl-4,5 α-epoxy, 3-14-dihydroxymorphinan-6-one hydrochloride]",solubility,[1]; in alcohol,slightly soluble
same,solubility,[1]; in ether and in chloroform,practically insoluble
same,solubility,"[1]; in water, in dilute acids, and in strong alkali",soluble
O=C1CC[C@@]2(O)[C@H]3Cc4ccc(O)c5c4[C@@]2(CCN3CC2CC2)[C@H]1O5 [Naltrexone Control],Assay (%),[2]; [4],99.3%
same,Impurities (%),[2]; [4],0.6%
same,Assay (%),[2]; [5],101.5%
same,Impurities (%),[2]; [5],0.6%
same,Assay (%),[2]; Initial,99.4%
same,Impurities (%),[2]; Initial,0.4%
C=CCN1CC[C@]23c4c5ccc(O)c4O[C@H]2C(=O)CC[C@@]3(O)[C@H]1C5 [naloxone],half-life,[3]; in vivo,3 h
same,oral bioavailability,[3]; oral,~3%
